# Values of other authors as cited in patent publication US20220054404A1, “SUBCUTANEOUS ADMINISTRATION OF NANOPARTICLES COMPRISING AN MTOR INHIBITOR AND ALBUMIN FOR TREATMENT OF DISEASES” (Abraxis BioScience, LLC, priority 2019, published 2022).
# Test system: ABCB1/ABCG2
smiles,measurement,value
COc1ccc(COc2cc3oc(=O)c4cc(C(C)O)ccc4c3cc2OC)cc1 (stereo not shown) [Palomid 529],Affinity for ABCB1/ABCG2,lacks affinity for ABCB1/ABCG2
